Patent publication US20060069132A1, “Azolecarboxamide herbicides” (priority 2004, published 2006)

Experiments:
[1] = test system: barnyardgrass; test: Test B pre-/postemergence herbicide test; format: in vivo, Echinochloa crus-galli; conditions: for Plant response rating (0 to 100 scale), Barnyardgrass: 0 is no effect, 100 is complete control, preemergence; for Barnyardgrass plant response rating: scale 0 (no effect) to 100 (complete control)
How it was run: (§1)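 Greenhouse pot assay with simultaneous preemergence (treated seed) and postemergence (2–18 cm seedlings) applications of surfactant-containing, non-phytotoxic solvent formulations. Response scored visually 13–15 days later on a 0–100 scale, 100 meaning complete control.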

[2] = test system: Surinam grass; test: Test B pre-/postemergence herbicide test; format: in vivo, Urochloa decumbens; conditions: for Plant response rating (0 to 100 scale), Surinam Grass: 0 is no effect, 100 is complete control, preemergence; for Surinam Grass plant response rating: scale 0 (no effect) to 100 (complete control)
How it was run: (§2)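 Flooded paddy rice and barnyardgrass were treated at the 2-leaf stage; upland plantings received compound either on sown seed or on 1- to 4-leaf seedlings. All were kept 13–15 days in a greenhouse and scored visually, 0–100, relative to untreated plants.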

[3] = test system: cocklebur; test: Test B pre-/postemergence herbicide test; format: in vivo, Xanthium strumarium; conditions: for Plant response rating (0 to 100 scale), Cocklebur: 0 is no effect, 100 is complete control, preemergence; for Cocklebur plant response rating: scale 0 (no effect) to 100 (complete control)
How it was run: as §1

[4] = test system: corn; test: Test B pre-/postemergence herbicide test; format: in vivo, Zea mays; conditions: for Plant response rating (0 to 100 scale), Corn: 0 is no effect, 100 is complete control, preemergence; for Corn plant response rating: scale 0 (no effect) to 100 (complete control)
How it was run: as §2

[5] = test system: large crabgrass; test: Test B pre-/postemergence herbicide test; format: in vivo, Digitaria sanguinalis; conditions: for Plant response rating (0 to 100 scale), Crabgrass, Large: 0 is no effect, 100 is complete control, preemergence; for Crabgrass, Large plant response rating: scale 0 (no effect) to 100 (complete control)
How it was run: as §2

[6] = test system: giant foxtail; test: Test B pre-/postemergence herbicide test; format: in vivo, Setaria faberi; conditions: for Plant response rating (0 to 100 scale), Foxtail, Giant: 0 is no effect, 100 is complete control, preemergence; for Foxtail, Giant plant response rating: scale 0 (no effect) to 100 (complete control)
How it was run: as §2

[7] = test system: lambsquarters; test: Test B pre-/postemergence herbicide test; format: in vivo, Chenopodium album; conditions: for Plant response rating (0 to 100 scale), Lambsquarters: 0 is no effect, 100 is complete control, preemergence; for Lambsquarters plant response rating: scale 0 (no effect) to 100 (complete control)
How it was run: as §2

[8] = test system: morningglory; test: Test B pre-/postemergence herbicide test; format: in vivo, Ipomoea coccinea; conditions: for Plant response rating (0 to 100 scale), Morningglory: 0 is no effect, 100 is complete control, preemergence; for Morningglory plant response rating: scale 0 (no effect) to 100 (complete control)
How it was run: as §1

[9] = test system: pigweed; test: Test B pre-/postemergence herbicide test; format: in vivo, Amaranthus retroflexus; conditions: for Plant response rating (0 to 100 scale), Pigweed: 0 is no effect, 100 is complete control, preemergence; for Pigweed plant response rating: scale 0 (no effect) to 100 (complete control)
How it was run: as §2

[10] = test system: velvetleaf; test: Test B pre-/postemergence herbicide test; format: in vivo, Abutilon theophrasti; conditions: for Plant response rating (0 to 100 scale), Velvetleaf: 0 is no effect, 100 is complete control, preemergence; for Velvetleaf plant response rating: scale 0 (no effect) to 100 (complete control)
How it was run: as §2

[11] = test system: blackgrass; test: Test B postemergence herbicide test; format: in vivo, Alopecurus myosuroides; conditions: scale 0 (no effect) to 100 (complete control)
How it was run: (§3)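 Greenhouse test; postemergence application to plants at 1–4 leaves (2–18 cm); paddy species at 2 leaves; evaluated visually vs controls at 13–15 days; scale 0–100 (100 = complete control).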

[12] = test system: wheat; test: Test B postemergence herbicide test; format: in vivo, Triticum aestivum; set-up: key to Wheat plant response rating: 0 = no effect, 100 = complete control
How it was run: (§4)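 Scale 0–100: zero equals no visible effect, 100 complete control, judged by eye relative to controls. Timing: 13 to 15 days in greenhouse post-treatment. Growth stage at spraying: two leaves (paddy) or one to four leaves, 2–18 cm (postemergence).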

[13] = test system: wild oat; test: Test B postemergence herbicide test; format: in vivo, Avena fatua; conditions: scale 0 (no effect) to 100 (complete control)
How it was run: as §4

[14] = test system: rice; test: Test B flooded paddy test; format: in vivo, Oryza sativa; conditions: 1000 g ai/ha, scale 0 to 100 (0 no effect, 100 complete control)
How it was run: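 After treating 2-leaf paddy plants or 2–18 cm postemergence plants (1 to 4 leaves) with formulated chemical, researchers kept them in a greenhouse for 13–15 days. Effects were judged visually versus controls: 0 indicates none, 100 total control.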

[15] = test system: small flower umbrella sedge; test: Test B flooded paddy test; format: in vivo, Cyperus difformis; conditions: 1000 g ai/ha, scale 0 to 100 (0 no effect, 100 complete control)
How it was run: as §3

[16] = test system: ducksalad; test: Test B flooded paddy test; format: in vivo, Heteranthera limosa; conditions: 1000 g ai/ha, scale 0 to 100 (0 no effect, 100 complete control)
How it was run: as §3

[17] = test system: barnyardgrass; test: Test B flooded paddy test; format: in vivo, Echinochloa crus-galli; conditions: 1000 g ai/ha, scale 0 to 100 (0 no effect, 100 complete control)
How it was run: as §3

[18] = 125 g ai/ha, visual rating, postemergence
[19] = 125 g ai/ha, visual rating, scale 0 (no effect) to 100 (complete control), postemergence
[20] = 500 g ai/ha, scale 0 to 100, 0 no effect, 100 complete control, preemergence
[21] = Postemergence, 500 g ai/ha, scale 0 (no effect) to 100 (complete control)

Structure (SMILES): CCNC(=O)c1ccc(F)c(NC(=O)c2nn(C(C)C)nc2C)c1 [Compound 401]
- Plant response rating (0 to 100 scale), Barnyardgrass ([1]; 125 g ai/ha): 0
- Barnyardgrass plant response rating [1, 18]: 0
- Barnyardgrass plant response rating ([1]; Postemergence, 500 g ai/ha): 0
- Plant response rating (0 to 100 scale), Surinam Grass ([2]; 125 g ai/ha): 0
- Surinam Grass plant response rating [2, 18]: 0
- Surinam Grass plant response rating ([2]; Postemergence, 500 g ai/ha): 0
- Plant response rating (0 to 100 scale), Cocklebur ([3]; 125 g ai/ha): 0
- Cocklebur plant response rating [3, 18]: 0
- Cocklebur plant response rating ([3]; Postemergence, 500 g ai/ha): 0
- Plant response rating (0 to 100 scale), Corn ([4]; 125 g ai/ha): 0
- Corn plant response rating [4, 18]: 0
- Corn plant response rating ([4]; Postemergence, 500 g ai/ha): 0
- Plant response rating (0 to 100 scale), Crabgrass, Large ([5]; 125 g ai/ha): 0
- Crabgrass, Large plant response rating [5, 18]: 0
- Crabgrass, Large plant response rating ([5]; Postemergence, 500 g ai/ha): 0
- Plant response rating (0 to 100 scale), Foxtail, Giant ([6]; 125 g ai/ha): 0
- Foxtail, Giant plant response rating [6, 18]: 0
- Foxtail, Giant plant response rating ([6]; Postemergence, 500 g ai/ha): 0
- Plant response rating (0 to 100 scale), Lambsquarters ([7]; 125 g ai/ha): 0
- Lambsquarters plant response rating [7, 18]: 0
- Lambsquarters plant response rating ([7]; Postemergence, 500 g ai/ha): 0
- Plant response rating (0 to 100 scale), Morningglory ([8]; 125 g ai/ha): 0
- Morningglory plant response rating [8, 18]: 0
- Morningglory plant response rating ([8]; Postemergence, 500 g ai/ha): 0
- Plant response rating (0 to 100 scale), Pigweed ([9]; 125 g ai/ha): 0
- Pigweed plant response rating [9, 18]: 0
- Pigweed plant response rating ([9]; Postemergence, 500 g ai/ha): 0
- Plant response rating (0 to 100 scale), Velvetleaf ([10]; 125 g ai/ha): 0
- Velvetleaf plant response rating [10, 18]: 0
- Velvetleaf plant response rating ([10]; Postemergence, 500 g ai/ha): 0
- Blackgrass plant response rating [11, 18]: 0
- Blackgrass plant response rating ([11]; Postemergence, 500 g ai/ha): 0
- Wheat plant response rating [12, 19]: 0
- Wheat plant response rating [12, 20]: 0
- Wheat plant response rating [12, 21]: 0
- Oat, Wild plant response rating [13, 18]: 0
- Oat, Wild plant response rating ([13]; Postemergence, 500 g ai/ha): 0
- Rice plant response rating [14]: 20
- Sedge, Umbrella plant response rating [15]: 0
- Ducksalad plant response rating [16]: 0
- Barnyardgrass plant response rating [17]: 0

Structure (SMILES): Cc1nn(C(C)C)nc1C(=O)Nc1cc(C(=O)N2CC=CC2)ccc1F [Compound 402]
- Plant response rating (0 to 100 scale), Barnyardgrass ([1]; 125 g ai/ha): 0
- Barnyardgrass plant response rating [1, 18]: 0
- Barnyardgrass plant response rating ([1]; Postemergence, 500 g ai/ha): 0
- Plant response rating (0 to 100 scale), Surinam Grass ([2]; 125 g ai/ha): 0
- Surinam Grass plant response rating [2, 18]: 0
- Surinam Grass plant response rating ([2]; Postemergence, 500 g ai/ha): 20
- Plant response rating (0 to 100 scale), Cocklebur ([3]; 125 g ai/ha): 0
- Cocklebur plant response rating [3, 18]: 0
- Cocklebur plant response rating ([3]; Postemergence, 500 g ai/ha): 0
- Plant response rating (0 to 100 scale), Corn ([4]; 125 g ai/ha): 0
- Corn plant response rating [4, 18]: 0
- Corn plant response rating ([4]; Postemergence, 500 g ai/ha): 0
- Plant response rating (0 to 100 scale), Crabgrass, Large ([5]; 125 g ai/ha): 0
- Crabgrass, Large plant response rating [5, 18]: 0
- Crabgrass, Large plant response rating ([5]; Postemergence, 500 g ai/ha): 10
- Plant response rating (0 to 100 scale), Foxtail, Giant ([6]; 125 g ai/ha): 0
- Foxtail, Giant plant response rating [6, 18]: 0
- Foxtail, Giant plant response rating ([6]; Postemergence, 500 g ai/ha): 20
- Plant response rating (0 to 100 scale), Lambsquarters ([7]; 125 g ai/ha): 0
- Lambsquarters plant response rating [7, 18]: 30
- Lambsquarters plant response rating ([7]; Postemergence, 500 g ai/ha): 40
- Plant response rating (0 to 100 scale), Morningglory ([8]; 125 g ai/ha): 0
- Morningglory plant response rating [8, 18]: 0
- Morningglory plant response rating ([8]; Postemergence, 500 g ai/ha): 0
- Plant response rating (0 to 100 scale), Pigweed ([9]; 125 g ai/ha): 0
- Pigweed plant response rating [9, 18]: 0
- Pigweed plant response rating ([9]; Postemergence, 500 g ai/ha): 10
- Plant response rating (0 to 100 scale), Velvetleaf ([10]; 125 g ai/ha): 0
- Velvetleaf plant response rating [10, 18]: 20
- Velvetleaf plant response rating ([10]; Postemergence, 500 g ai/ha): 30
- Blackgrass plant response rating [11, 18]: 0
- Blackgrass plant response rating ([11]; Postemergence, 500 g ai/ha): 0
- Wheat plant response rating [12, 19]: 0
- Wheat plant response rating [12, 20]: 10
- Wheat plant response rating [12, 21]: 0
- Oat, Wild plant response rating [13, 18]: 0
- Oat, Wild plant response rating ([13]; Postemergence, 500 g ai/ha): 0
- Rice plant response rating [14]: 10
- Sedge, Umbrella plant response rating [15]: 70
- Ducksalad plant response rating [16]: 20
- Barnyardgrass plant response rating [17]: 10
